Experimental data as given in US7928143B2, “Method for preventing and/or treating neurodegenerative diseases” (Ono Pharmaceutical Co., Ltd., priority 2003, dated 2011).

Experiments:
Type in all cases: in vivo, human
[1] = test system: patients with cerebral infarction at the acute phase (within 24 hours after onset of the disease); assay: Clinical test Example 2: double blind placebo-controlled test, efficacy by modified Rankin Scale; conditions: 8 mg/kg/h administration group, 1 h continuous i.v. once a day for 7 days; 40 days after commencement of administration; statistically significant vs placebo (32.5%)
Experimental: (§1) As a clinical test, a double blind test was carried out using patients with cerebral infarction at the acute phase (within 24 hours after onset of the disease) under the following conditions by (2R)-2-propyloctanoic acid administration groups (6 varied doses) and a placebo administration group. • Object: 92 patients in the acute phase cerebral infarction. • Administration method and dosage: 1 hour of continuous intravenous administration once a day in each group; • (1) (2R)-2-propyloctanoic acid: 2 mg/kg/h; • (2) (2R)-2-propyloctanoic acid: 4 mg/kg/h; • (3) (2R)-2-propyloctanoic acid: 6 mg/kg/h; • (4) (2R)-2-propyloctanoic acid: 8 mg/kg/h; • (5) (2R)-2-propyloctanoic acid: 10 mg/kg/h; • (6) (2R)-2-propyloctanoic acid: 12 mg/kg/h; • (7) placebo. • Administration period: 7 days • The Number of Cases: • (1) (2R)-2-propyloctanoic acid 2 mg/kg/h administered group: 9 patients; • (2) (2R)-2-propyloctanoic acid 4 mg/kg/h administered group: 8 patients; • (3) (2R)-2-propyloctanoic acid 6 mg/kg/h administered group: 8 patients; • (4) (2R)-2-propyloctanoic acid 8 mg/kg/h administered group: 8 patients; • (5) (2R)-2-propyloctanoic acid 10 mg/kg/h administered group: 8 patients; • (6) (2R)-2-propyloctanoic acid 12 mg/kg/h administered group: 8 patients; • (7) placebo administered group: 43 patients. […]

[2] = test system: patients with cerebral infarction at the acute phase (within 72 hours after onset of the disease); assay: Clinical test Example 1: safety evaluation (frequency of adverse matters and contents); conditions: i.v. 7 days, causal relation to the test drug was denied
Experimental: (§2) As a clinical test, a randomization test was carried out on patients with cerebral infarction at the acute phase (within 72 hours after onset of the disease), at two doses under the following conditions. • Object: 97 patients in the acute phase cerebral infarction. • Administration method and dosage: 1 hour of continuous intravenous administration once a day in each group; • (1) (2R)-2-propyloctanoic acid: 0.4 mg/kg/h; • (2) (2R)-2-propyloctanoic acid: 4 mg/kg/h. • Administration period: 7 days • The Number of Cases: • (1) (2R)-2-propyloctanoic acid 0.4 mg/kg/h administered group: 51 patients; • (2) (2R)-2-propyloctanoic acid 4 mg/kg/h administered group: 46 patients. Evaluation Items: Main Evaluation Items <Efficacy Evaluation Items> (1) Rankin Scale (RS)
(§3) <Safety Evaluation Item> • Frequency of adverse matters and the contents thereof (symptoms, causal relation and the like): • Analysis: Therapeutic effects by continuous intravenous administration of (2R)-2-propyloctanoic acid were evaluated based on the above main evaluation items. • Results: The results are shown below. <Efficacy Evaluation Item>

[3] = test system: patients with cerebral infarction at the acute phase (within 72 hours after onset of the disease); assay: Clinical test Example 1: randomization test at two doses, efficacy by Rankin Scale and Glasgow Outcome Scale; conditions: 4 mg/kg/h vs 0.4 mg/kg/h group, 1 h continuous i.v. once a day for 7 days, cases with JSS≦15 before administration, three months after commencement of administration
Experimental: as §2
Evaluation method: Symptoms of patients were scored by classifying them into the following grades of Table 1.
(2) Glasgow Outcome Scale (GOS)
Evaluation method: Symptoms of patients were scored by classifying them into the following grades of Table 2.
as §3

serum S-100β = assay: Clinical test Example 2: serum S-100β content (SMART S100 ELISA Kit); conditions: administered groups (2 to 12 mg/kg/h, i.v. 7 days) in comparison with placebo group; particularly remarkable on and after 3 days; FIG. 3
Experimental: as §1

[4] = test system: patients with cerebral infarction at the acute phase (within 24 hours after onset of the disease); assay: Clinical test Example 2: safety evaluation (adverse matters and clinical test values); conditions: administration group (2 to 12 mg/kg/h, i.v. 7 days)
Experimental: As a clinical test, a double blind test was carried out using patients with cerebral infarction at the acute phase (within 24 hours after onset of the disease) under the following conditions by (2R)-2-propyloctanoic acid administration groups (6 varied doses) and a placebo administration group. • Object: 92 patients in the acute phase cerebral infarction. • Administration method and dosage: 1 hour of continuous intravenous administration once a day in each group; • (1) (2R)-2-propyloctanoic acid: 2 mg/kg/h; • (2) (2R)-2-propyloctanoic acid: 4 mg/kg/h; • (3) (2R)-2-propyloctanoic acid: 6 mg/kg/h; • (4) (2R)-2-propyloctanoic acid: 8 mg/kg/h; • (5) (2R)-2-propyloctanoic acid: 10 mg/kg/h; • (6) (2R)-2-propyloctanoic acid: 12 mg/kg/h; • (7) placebo. • Administration period: 7 days • The Number of Cases: • (1) (2R)-2-propyloctanoic acid 2 mg/kg/h administered group: 9 patients; • (2) (2R)-2-propyloctanoic acid 4 mg/kg/h administered group: 8 patients; • (3) (2R)-2-propyloctanoic acid 6 mg/kg/h administered group: 8 patients; • (4) (2R)-2-propyloctanoic acid 8 mg/kg/h administered group: 8 patients; • (5) (2R)-2-propyloctanoic acid 10 mg/kg/h administered group: 8 patients; • (6) (2R)-2-propyloctanoic acid 12 mg/kg/h administered group: 8 patients; • (7) placebo administered group: 43 patients. Evaluation Items: Main Evaluation Items <Efficacy Evaluation Items> (1) Modified Rankin Scale (mRS)
Adverse Matters and Clinical Test Values
• Analysis: Therapeutic effects by continuous intravenous administration of (2R)-2-propyloctanoic acid was evaluated based on the above main evaluation items. • Results: The results are shown below. <Efficacy Evaluation Item>

With CCCCCC[C@@H](CCC)C(=O)O [(2R)-2-propyloctanoic acid] as the compound, how does the “ratio occupied by a score of 2 or less (category of good improvement) on modified Rankin Scale (mRS)” value [1] read?
Its value is 87.5%.

And the cases of death ([2]; 0.4 mg/kg/h administration group)?
The cases of death was 3 cases.

And the cases of death ([2]; 4 mg/kg/h administration group)?
The cases of death was 4 cases.

What about the “ratio of occupying the category of improvement by RS (Rankin Scale)” value ([3]; FIG. 1) of the same compound?
The value was “statistically significant differences were found”.

And the “ratio of occupying the category of improvement by GOS (Glasgow Outcome Scale)” value ([3]; FIG. 2)?
The value was “statistically significant differences were found”.

What about the “serum S-100β content during the administration period” value (serum S-100β) of the same compound?
Its value is “tendency of inhibiting increase of the serum S-100β content”.

And the Serious adverse matters ([4]; causal relation to the test drug was denied, placebo 12 cases)?
Its Serious adverse matters is 10 cases.

And the “Frequency of the adverse matters (side effects) whose causal relation to the test drug was not denied” value ([4]; placebo 39.5%, no difference)?
The value was 42.9%.

What about the “Frequency of the adverse matters” value ([4]; placebo 100%, no difference) of the same compound?
The value was 98%.
